Test results as given in ChEMBL document CHEMBL2073970, “Expression cloning and functional characterization of the kidney cortex high-affinity proton-coupled peptide transporter” (Proc Natl Acad Sci U S A, 1996).

Biological target: T1, Solute carrier family 15 member 2 (Rattus norvegicus) (UniProt Q63424)
T1 sequence (whole entry): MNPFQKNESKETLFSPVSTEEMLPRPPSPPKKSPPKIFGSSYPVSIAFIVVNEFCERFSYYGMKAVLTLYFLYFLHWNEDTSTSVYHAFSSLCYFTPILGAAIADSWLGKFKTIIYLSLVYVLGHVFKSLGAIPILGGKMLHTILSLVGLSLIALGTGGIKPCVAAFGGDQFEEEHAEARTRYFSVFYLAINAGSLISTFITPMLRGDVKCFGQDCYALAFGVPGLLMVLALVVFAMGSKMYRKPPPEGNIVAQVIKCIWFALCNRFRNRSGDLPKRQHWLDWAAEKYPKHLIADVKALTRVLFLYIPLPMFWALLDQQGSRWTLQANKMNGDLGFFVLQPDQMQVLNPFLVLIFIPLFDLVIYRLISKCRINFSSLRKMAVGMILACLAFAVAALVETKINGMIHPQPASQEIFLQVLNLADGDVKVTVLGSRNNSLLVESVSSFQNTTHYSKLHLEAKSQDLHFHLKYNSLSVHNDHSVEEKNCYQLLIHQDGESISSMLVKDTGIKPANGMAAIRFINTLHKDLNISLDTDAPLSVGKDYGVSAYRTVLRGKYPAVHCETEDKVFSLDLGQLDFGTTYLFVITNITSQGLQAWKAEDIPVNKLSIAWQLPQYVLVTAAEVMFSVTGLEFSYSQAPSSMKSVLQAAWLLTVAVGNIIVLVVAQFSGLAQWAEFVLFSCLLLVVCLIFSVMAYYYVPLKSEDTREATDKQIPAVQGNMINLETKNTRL
Experiment: TP_TRANSPORTER: inhibition of Cefadroxil uptake (Cefadroxil: 25 uM, Loracarbef: 5000uM) in Xenopus laevis oocytes
Format: functional, cell-based
Conditions: Oocyte

N[C@@H](C(=O)N[C@@H]1C(=O)N2C(C(=O)O)=C(Cl)CC[C@H]12)c1ccccc1
Activity: inhibitor [15% (at a rough estimate) of control]
